# Test results as given in ChEMBL document CHEMBL1201862, “PubChem BioAssay data set” (2004).
# Counter-ions that a name gives are not always drawn. Active and inactive are the calls of the source.
# What was measured:
# [1] = target: Benomyl/methotrexate resistance protein (Candida albicans, UniProt P28873); assay: CaMdr1 efflux pump inhibitor potency, dose response, singleplex, Cherry Pick1 hits (AID 588608); format: functional
# [2] = control 3'UTR Renilla luciferase suppression, dose response, counter-screen for Shn3 inhibitor project, cell-based, Clone20-Shn3RL, cherry-picked (AID 624133); format: functional
# [3] = Luminescence Cell-Based Dose Retest to Confirm Inhibitors of Cancer Stem Cells. [Related pubchem assays (depositor defined):AID2717, AID2721]; format: functional; settings: Homo sapiens
# [4] = HepG2 cell cytotoxicity, dose response, cytotoxicity control for Shn3 inhibitor project, CellTiter-Glo, cherry-picked (AID 624134); format: functional, cell-based
# [5] = target: T1, Fatty acid synthase (Homo sapiens, UniProt P49327); assay: FAS thioesterase domain inhibitors, dose response, biochemical, kinetic fluorescence intensity (AID 624326); format: functional;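 further: rate of fluorescence rise from hydrolysis of a fluorogenic O-methyl fluorescein ester substrate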
# T1 sequence (P49327 whole entry, the tested form may be a part): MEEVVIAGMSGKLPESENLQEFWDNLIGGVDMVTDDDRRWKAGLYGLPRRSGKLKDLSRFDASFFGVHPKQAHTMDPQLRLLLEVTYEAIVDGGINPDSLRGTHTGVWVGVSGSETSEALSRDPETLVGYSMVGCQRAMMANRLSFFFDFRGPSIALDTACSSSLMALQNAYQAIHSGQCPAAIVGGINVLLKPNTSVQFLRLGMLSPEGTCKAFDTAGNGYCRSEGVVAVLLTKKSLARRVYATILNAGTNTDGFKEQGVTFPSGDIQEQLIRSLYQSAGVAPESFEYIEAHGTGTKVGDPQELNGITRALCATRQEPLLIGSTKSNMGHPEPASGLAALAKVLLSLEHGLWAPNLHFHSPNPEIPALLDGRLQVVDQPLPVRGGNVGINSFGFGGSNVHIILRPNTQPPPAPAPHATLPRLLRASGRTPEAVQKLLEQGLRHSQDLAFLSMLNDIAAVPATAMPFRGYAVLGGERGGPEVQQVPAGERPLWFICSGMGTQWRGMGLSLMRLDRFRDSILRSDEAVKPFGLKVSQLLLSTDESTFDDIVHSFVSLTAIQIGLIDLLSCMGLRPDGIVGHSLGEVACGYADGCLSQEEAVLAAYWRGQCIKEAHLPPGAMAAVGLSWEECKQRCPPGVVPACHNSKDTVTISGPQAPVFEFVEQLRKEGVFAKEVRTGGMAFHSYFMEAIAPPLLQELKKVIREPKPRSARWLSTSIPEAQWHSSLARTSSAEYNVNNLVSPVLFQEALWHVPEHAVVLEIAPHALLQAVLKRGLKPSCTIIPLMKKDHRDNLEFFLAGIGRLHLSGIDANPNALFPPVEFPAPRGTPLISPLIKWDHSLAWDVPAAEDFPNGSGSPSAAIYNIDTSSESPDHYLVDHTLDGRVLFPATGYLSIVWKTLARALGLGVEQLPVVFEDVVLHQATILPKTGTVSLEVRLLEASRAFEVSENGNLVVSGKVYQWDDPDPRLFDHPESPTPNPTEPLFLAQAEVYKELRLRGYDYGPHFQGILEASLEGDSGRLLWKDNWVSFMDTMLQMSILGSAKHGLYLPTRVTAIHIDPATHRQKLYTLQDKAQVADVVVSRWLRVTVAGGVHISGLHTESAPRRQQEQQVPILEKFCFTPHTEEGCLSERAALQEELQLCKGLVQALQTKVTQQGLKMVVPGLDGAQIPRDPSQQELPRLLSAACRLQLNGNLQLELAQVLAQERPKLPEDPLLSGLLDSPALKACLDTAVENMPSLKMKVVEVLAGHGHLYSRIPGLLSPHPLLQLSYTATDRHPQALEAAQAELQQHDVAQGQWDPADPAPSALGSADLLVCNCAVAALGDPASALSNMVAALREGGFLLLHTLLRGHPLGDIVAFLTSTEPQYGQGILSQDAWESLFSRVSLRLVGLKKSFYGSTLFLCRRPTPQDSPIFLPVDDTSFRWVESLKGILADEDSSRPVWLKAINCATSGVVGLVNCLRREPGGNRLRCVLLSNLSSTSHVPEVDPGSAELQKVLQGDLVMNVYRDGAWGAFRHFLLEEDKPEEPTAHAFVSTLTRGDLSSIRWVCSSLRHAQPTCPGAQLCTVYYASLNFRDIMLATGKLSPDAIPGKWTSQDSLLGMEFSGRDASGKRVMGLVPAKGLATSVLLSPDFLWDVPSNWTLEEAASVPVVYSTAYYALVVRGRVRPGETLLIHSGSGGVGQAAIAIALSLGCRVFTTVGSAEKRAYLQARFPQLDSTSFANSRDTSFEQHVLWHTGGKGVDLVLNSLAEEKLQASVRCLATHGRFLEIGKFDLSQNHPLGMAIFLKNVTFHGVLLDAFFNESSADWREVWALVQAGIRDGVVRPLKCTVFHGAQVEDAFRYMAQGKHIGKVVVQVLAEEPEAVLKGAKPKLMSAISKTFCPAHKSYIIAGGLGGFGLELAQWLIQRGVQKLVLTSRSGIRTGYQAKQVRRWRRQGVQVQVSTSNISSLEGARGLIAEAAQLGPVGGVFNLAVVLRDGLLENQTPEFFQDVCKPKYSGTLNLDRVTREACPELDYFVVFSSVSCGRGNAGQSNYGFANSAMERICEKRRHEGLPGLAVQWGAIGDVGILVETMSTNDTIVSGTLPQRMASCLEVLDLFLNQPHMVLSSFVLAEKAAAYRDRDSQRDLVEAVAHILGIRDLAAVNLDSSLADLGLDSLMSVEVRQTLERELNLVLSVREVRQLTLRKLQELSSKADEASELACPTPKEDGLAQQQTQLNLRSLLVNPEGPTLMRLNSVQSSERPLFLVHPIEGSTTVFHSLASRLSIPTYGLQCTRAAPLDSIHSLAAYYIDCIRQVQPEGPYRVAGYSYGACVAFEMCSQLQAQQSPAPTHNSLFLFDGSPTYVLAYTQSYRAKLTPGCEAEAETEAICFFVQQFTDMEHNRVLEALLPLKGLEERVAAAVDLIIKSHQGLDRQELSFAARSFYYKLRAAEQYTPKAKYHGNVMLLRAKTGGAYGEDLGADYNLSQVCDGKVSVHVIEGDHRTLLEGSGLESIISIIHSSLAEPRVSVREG
# [6] = target: T2, Microphthalmia-associated transcription factor (Homo sapiens, UniProt O75030); assay: TRPM1 promoter luciferase signal decrease, dose response, MITF inhibitor project, cell-based, SK-MEL-5, cherry-picked, set 3 (AID 493073); format: functional
# T2 sequence (O75030 whole entry): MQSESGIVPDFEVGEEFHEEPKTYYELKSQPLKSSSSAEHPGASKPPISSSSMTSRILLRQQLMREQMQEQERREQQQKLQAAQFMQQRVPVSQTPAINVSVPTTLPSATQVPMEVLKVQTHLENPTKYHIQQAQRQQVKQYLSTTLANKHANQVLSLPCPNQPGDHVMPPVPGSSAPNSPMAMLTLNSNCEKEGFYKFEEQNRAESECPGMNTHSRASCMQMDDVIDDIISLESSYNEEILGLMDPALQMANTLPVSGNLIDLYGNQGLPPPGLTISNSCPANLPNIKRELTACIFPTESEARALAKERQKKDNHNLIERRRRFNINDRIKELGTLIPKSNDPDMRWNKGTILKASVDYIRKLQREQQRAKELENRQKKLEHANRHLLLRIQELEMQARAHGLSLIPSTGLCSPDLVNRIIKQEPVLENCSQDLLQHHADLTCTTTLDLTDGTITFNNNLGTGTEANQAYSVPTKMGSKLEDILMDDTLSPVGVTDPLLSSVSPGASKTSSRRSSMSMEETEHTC
# [7] = target: Paired box protein Pax-8 (Homo sapiens, UniProt Q06710); assay: inhibitors of PAX8-driven TPO luciferase reporter, dose response, RMG-I cells, cherry-pick (AID 687027); format: functional, cell-based;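 further: luciferase reporter driven by Pax8 target thyroperoxidase promoter measured by SteadyGlo luminescence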
# [8] = target: T1, Fatty acid synthase; assay: FAS thioesterase domain inhibitors, dose response, biochemical, endpoint fluorescence intensity, uHTS hits (AID 624327); format: functional;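 further: fluorescence from hydrolysis of an O-methyl fluorescein acyl ester substrate by the enzyme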
# [9] = target: Beta-galactosidase (Escherichia coli, UniProt Q8VNN2); assay: PubChem AID 485352; format: functional
# [10] = Shn3 3'UTR reporter inhibitors, dose response, cell-based, Clone20 osteoblasts, firefly luciferase, cherry-picked (AID 624132); format: functional;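 further: firefly luciferase luminescence from reporter carrying the Shn3 3'UTR in osteoblasts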
# [11] = target: Heat shock protein HSP 90-alpha (Homo sapiens, UniProt P07900); format: functional, organism-based
# [12] = tested on: A-375; assay: MITF: Counter assay: A375 proliferation Measured in Cell-Based System Using Plate Reader - 2084-03_Inhibitor_Dose_DryPowder_Activity. [Related pubchem assays (depositor defined):AID488944]; format: functional; settings: Homo sapiens
# [13] = target: ATP-binding cassette sub-family B member 6 (Homo sapiens, UniProt Q9NP58); assay: ABCB6 transporter inhibitors, dose response, K562-ABCB6 cells, flow cytometry, cherry pick 1 (AID 623955); format: functional; settings: read-out: EC50_MICROM
# [14] = tested on: CHO; assay: cytotoxicity in TLR9-MyD88 CHO cells, dose response, cytotoxicity control for TLR9-MyD88 binding inhibitor project, cell-based, luminescence (AID 588339); format: functional, hamster; settings: Cricetulus griseus;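 further: CHO cells stably coexpressing TLR9 and MyD88 fusions from primary screen; compound exposure lasted 48 hours before viability readout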
# [15] = target: Beta Lactamase (Pseudomonas aeruginosa, UniProt Q932Y6); assay: beta-lactamase reporter inhibitor potency, dose response, artefact control for TLR9-MyD88 binding inhibitor project, BLA reporter cells, FRET fluorescence (AID 588341); format: cell-based;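 further: cell based assay in CHO-K1 cells stably expressing beta-lactamase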
# Sequence of Beta Lactamase (Q932Y6 whole entry): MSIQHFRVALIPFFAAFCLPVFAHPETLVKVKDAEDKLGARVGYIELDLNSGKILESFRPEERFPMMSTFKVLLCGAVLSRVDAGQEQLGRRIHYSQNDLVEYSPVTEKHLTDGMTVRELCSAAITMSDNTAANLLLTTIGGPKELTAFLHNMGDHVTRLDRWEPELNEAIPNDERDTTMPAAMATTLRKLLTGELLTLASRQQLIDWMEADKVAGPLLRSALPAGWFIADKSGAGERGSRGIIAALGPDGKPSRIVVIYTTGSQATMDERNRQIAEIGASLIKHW
# [16] = target: Type-1 angiotensin II receptor (Homo sapiens, UniProt P30556); assay: AT1 receptor antagonists, dose response, selectivity assay for APJ receptor antagonist project, cell-based, uHTS hits (AID 463214); format: functional;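 further: antagonist potency against angiotensin II stimulated AT1 response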
# Sequence of Type-1 angiotensin II receptor (P30556 whole entry): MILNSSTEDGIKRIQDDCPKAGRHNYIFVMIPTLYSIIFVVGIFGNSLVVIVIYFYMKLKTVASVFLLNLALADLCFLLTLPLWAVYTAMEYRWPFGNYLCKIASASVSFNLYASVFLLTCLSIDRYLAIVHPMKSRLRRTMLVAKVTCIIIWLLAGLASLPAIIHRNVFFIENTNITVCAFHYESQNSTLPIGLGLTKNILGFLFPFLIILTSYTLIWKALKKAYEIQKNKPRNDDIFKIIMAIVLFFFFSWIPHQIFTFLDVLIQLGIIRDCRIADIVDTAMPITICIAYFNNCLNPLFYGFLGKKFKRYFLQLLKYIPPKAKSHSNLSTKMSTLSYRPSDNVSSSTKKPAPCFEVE
# [17] = tested on: A-375; assay: A375 melanoma cell viability reduction, dose response, counter-screen for MITF modulator project, cherry-pick samples, set 2 (AID 540335); format: functional, cell-based; settings: Homo sapiens
# [18] = target: T3, High affinity choline transporter 1 (Homo sapiens, UniProt Q9GZV3); assay: CHT inhibitors, dose response, cell-based, 10-point CRC, membrane potential dye (AID 588401); format: functional;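 further: membrane potential dye fluorescence of choline-evoked depolarization via CHT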
# T3 sequence (Q9GZV3 whole entry): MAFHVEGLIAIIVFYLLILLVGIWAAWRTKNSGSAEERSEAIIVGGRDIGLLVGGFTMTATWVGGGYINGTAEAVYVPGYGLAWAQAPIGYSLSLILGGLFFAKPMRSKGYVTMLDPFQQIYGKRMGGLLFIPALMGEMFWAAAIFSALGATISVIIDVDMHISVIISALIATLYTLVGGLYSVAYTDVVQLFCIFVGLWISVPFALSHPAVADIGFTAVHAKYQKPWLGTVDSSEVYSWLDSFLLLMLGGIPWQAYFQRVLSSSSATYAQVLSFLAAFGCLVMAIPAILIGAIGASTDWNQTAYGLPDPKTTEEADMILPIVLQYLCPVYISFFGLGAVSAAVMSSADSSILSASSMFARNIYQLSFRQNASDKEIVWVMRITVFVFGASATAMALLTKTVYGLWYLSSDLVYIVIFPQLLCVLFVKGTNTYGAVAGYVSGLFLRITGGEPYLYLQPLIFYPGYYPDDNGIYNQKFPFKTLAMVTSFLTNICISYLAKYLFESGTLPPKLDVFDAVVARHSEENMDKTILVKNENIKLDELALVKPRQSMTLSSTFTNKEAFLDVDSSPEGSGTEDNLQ
# [19] = target: T3, High affinity choline transporter 1; assay: CHT inhibitors, dose response, cell-based, 5-point CRC, membrane potential dye (AID 504840); format: functional
# [20] = target: Photoreceptor-specific nuclear receptor (Homo sapiens, UniProt Q9Y5X4); format: functional, cell-based;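 further: CHO-S cells with Gal4-NCOR and VP16-NR2E3 two-hybrid luciferase reporter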
# Sequence of Photoreceptor-specific nuclear receptor (Q9Y5X4 whole entry, the tested form may be a part): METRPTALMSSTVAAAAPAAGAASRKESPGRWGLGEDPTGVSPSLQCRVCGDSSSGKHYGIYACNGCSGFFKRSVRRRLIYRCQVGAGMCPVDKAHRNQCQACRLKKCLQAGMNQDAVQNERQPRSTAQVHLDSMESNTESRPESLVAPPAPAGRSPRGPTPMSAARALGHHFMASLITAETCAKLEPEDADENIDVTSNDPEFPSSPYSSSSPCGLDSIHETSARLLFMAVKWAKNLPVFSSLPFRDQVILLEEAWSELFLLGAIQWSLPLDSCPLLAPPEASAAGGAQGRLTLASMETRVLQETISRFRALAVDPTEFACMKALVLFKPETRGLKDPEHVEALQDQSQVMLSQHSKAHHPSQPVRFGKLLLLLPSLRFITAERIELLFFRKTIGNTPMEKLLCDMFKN
# [21] = target: T3, High affinity choline transporter 1; assay: CHT activators, dose response, cell-based, 10-point CRC, membrane potential dye (AID 602376); format: functional
# [22] = target: DNA dC->dU-editing enzyme APOBEC-3G (Homo sapiens, UniProt Q9HC16); format: functional;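 further: Dose-response counterscreen measuring inhibition of APOBEC3G DNA deaminase activity, run while confirming APOBEC3A inhibitors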
# Sequence of DNA dC->dU-editing enzyme APOBEC-3G (Q9HC16 whole entry): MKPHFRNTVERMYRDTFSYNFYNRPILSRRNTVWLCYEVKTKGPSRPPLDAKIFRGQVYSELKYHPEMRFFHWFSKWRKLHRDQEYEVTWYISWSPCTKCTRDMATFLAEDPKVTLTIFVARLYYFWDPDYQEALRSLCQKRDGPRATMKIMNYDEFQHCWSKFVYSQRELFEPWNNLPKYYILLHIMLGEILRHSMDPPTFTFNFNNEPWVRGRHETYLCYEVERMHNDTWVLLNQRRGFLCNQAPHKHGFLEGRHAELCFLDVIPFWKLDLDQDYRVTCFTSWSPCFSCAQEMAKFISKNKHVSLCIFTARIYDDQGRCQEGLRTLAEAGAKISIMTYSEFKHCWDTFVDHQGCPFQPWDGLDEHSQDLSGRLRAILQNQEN
# [23] = target: DNA dC->dU-editing enzyme APOBEC-3A (Homo sapiens, UniProt P31941); assay: Dose Response confirmation of small molecule APOBEC3A DNA Deaminase Inhibitors via a fluorescence-based single-stranded DNA deaminase assay. [Related pubchem assays (depositor defined):AID493011, AID493024]; format: functional
# Sequence of DNA dC->dU-editing enzyme APOBEC-3A (P31941 whole entry): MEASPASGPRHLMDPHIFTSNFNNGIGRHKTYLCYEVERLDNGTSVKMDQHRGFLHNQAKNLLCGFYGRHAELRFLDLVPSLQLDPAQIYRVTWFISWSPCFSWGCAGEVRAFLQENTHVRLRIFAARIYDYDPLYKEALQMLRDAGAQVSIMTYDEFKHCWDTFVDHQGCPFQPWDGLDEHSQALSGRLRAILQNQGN
# [24] = (§1) Counterscreen for antagonists of the orexin 1 receptor (OX1R; HCRTR1): Fluorescence-based cell-based high throughput dose response assay to identify antagonists of the parental CHO cell line. [Related pubchem assays (depositor defined):AID434989, AID435008, AID463079, AID485270, AID492963, AID492964, AID492965, AID493232, AID504699, AID504701]; format: functional
# [25] = target: T4, Orexin/Hypocretin receptor type 1 (Homo sapiens, UniProt O43613); assay: (§2) Fluorescence-based cell-based high throughput dose response assay for antagonists of the orexin 1 receptor (OX1R; HCRTR1). [Related pubchem assays (depositor defined):AID434989, AID435008, AID463079, AID485270, AID492963, AID492964, AID492965, AID493232, AID504717, AID504718]; format: functional
# T4 sequence (O43613 whole entry): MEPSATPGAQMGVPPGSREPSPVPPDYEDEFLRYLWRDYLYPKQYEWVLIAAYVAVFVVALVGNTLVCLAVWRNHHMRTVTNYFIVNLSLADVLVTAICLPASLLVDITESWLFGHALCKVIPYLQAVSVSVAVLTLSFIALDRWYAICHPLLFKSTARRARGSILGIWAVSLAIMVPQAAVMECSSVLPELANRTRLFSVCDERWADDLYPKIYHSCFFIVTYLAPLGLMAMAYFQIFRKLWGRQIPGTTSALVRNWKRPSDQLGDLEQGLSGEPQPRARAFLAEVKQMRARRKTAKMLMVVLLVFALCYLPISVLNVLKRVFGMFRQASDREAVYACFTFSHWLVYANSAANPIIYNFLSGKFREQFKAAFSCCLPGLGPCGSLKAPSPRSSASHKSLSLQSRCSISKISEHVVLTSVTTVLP
# [26] = target: T4, Orexin/Hypocretin receptor type 1; assay: as §2, with “Homogeneous Time Resolved Fluorescence (HTRF)-based” for “Fluorescence-based”; format: functional
# [27] = target: T5, Orexin receptor type 2 (Homo sapiens, UniProt O43614); assay: Counterscreen assay for antagonists of the orexin 1 receptor (OX1R; HCRTR1): Fluorescence-based cell-based dose response assay for antagonists of the orexin 2 receptor (OX2R; HCRTR2), run by assay provider.; format: functional
# T5 sequence (O43614 whole entry): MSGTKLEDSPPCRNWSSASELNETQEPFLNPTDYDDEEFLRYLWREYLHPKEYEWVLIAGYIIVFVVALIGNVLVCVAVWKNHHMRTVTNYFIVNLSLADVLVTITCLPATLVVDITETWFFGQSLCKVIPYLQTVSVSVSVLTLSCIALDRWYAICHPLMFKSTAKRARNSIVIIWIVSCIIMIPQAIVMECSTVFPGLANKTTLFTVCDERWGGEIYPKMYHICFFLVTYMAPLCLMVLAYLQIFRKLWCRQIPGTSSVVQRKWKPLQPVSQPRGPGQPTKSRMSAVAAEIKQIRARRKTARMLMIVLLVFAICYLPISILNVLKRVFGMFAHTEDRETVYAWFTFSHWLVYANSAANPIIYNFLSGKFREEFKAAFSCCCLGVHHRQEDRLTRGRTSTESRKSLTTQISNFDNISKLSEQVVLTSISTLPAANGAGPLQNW
# [28] = target: T5, Orexin receptor type 2; assay: Counterscreen assay for antagonists of the orexin 1 receptor (OX1R; HCRTR1): Homogeneous Time Resolved Fluorescence (HTRF)-based cell-based dose response assay for antagonists of the orexin 2 receptor (OX2R; HCRTR2), run by assay provider.; format: functional
# [29] = tested on: CHO-K1; assay: as §1, with “Homogeneous time resolved fluorescence (HTRF)-based” for “Fluorescence-based”, “cell-based” for “cell-based high throughput”, “CHO-K1” for “CHO”; format: functional; settings: Cricetulus griseus;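 further: potency for inhibition of ATP-stimulated IP1 production as antagonists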
# [30] = target: Interleukin-8 (Homo sapiens, UniProt P10145); assay: Dose Response confirmation of uHTS small molecule hits for cystic fibrosis induced NFkb Inhibitors in a PAF-induced IL8 counterscreen.; format: functional; settings: read-out: IC50_Mean
# Sequence of Interleukin-8 (P10145 whole entry): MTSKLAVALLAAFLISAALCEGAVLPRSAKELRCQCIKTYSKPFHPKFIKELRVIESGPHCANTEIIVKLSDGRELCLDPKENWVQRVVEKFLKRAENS
# [31] = inhibitors of intracellular T. cruzi replication, confirmation, NIH3T3 host cells, beta-gal luminescence (AID 2044); format: functional, cell-based;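 further: intracellular parasites grown in NIH/3T3 mouse fibroblasts as host cells; luminescent beta-galactosidase reporter signal from transgenic T. cruzi replicating inside host cells; inhibitors lower the luminescence signal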
# [32] = cytotoxicity toward NIH3T3 fibroblasts, dose response, counter-screen, cell-based, ATP luminescence, mouse fibroblasts (AID 2010); format: functional;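 further: cells exposed to compound for about 90 hours before reading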
# [33] = AlphaScreen signal interference compounds, dose response, artefact control for ARNT-TACC3 interaction inhibitor project, biochemical, luminescence, cherry-pick (AID 651705); format: functional;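 further: AlphaScreen bead proximity signal that flags compounds interfering with the detection technology; potency reflects signal decrease which marks the compound as an assay artifact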
# Sequence of Benomyl/methotrexate resistance protein (P28873 whole entry): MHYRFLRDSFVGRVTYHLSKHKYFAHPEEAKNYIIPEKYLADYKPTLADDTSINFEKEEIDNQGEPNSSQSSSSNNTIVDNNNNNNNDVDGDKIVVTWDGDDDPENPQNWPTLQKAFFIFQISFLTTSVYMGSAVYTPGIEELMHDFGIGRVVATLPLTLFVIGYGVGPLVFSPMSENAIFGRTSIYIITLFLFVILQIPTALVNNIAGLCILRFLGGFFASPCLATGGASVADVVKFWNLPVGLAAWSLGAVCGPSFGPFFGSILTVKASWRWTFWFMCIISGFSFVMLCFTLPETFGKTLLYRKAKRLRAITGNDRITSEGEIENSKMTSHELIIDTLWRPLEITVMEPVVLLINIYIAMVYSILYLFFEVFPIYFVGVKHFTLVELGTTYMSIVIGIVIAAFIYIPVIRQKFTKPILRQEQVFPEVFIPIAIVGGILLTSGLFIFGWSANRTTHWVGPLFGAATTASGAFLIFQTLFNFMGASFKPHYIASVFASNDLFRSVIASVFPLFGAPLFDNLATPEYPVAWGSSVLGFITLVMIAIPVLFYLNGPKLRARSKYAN
compound,measurement,setting,value
Cc1ccc(C)c(C(=O)COC(=O)c2ccc(C)c(S(=O)(=O)N3CCOCC3)c2)c1,EC50,[1],0.704 µM (active)
O=C(Nc1ccc(F)cc1)c1nc(S(=O)(=O)Cc2ccccc2)ncc1Cl,AC50,[2],6.61 µM (active)
same,AC50,[3],1.63 µM (active)
same,AC50,[4],22.6 µM (active)
same,IC50,[5],8.67 µM (active)
same,AC50,[6],9.45 µM (active)
same,AC50,[7],10.4 µM (active)
same,IC50,[8],13.4 µM (active)
same,EC50,[9],> 40 µM (inactive)
same,AC50,[10],3.38 µM (active)
same,AC50,[11],3.46 µM (active)
same,AC50,[12],> 11 µM (active)
same,EC50,[13],62.8 µM (active)
same,IC50,[14],2.79 µM (active)
same,IC50,[15],5.43 µM (active)
same,IC50,[16],11.8 µM (active)
same,AC50,[17],> 11 µM (active)
COc1ccc(C(=O)c2c3ccc(C(F)(F)F)cc3[n+]([O-])n2CCCN)cc1,IC50,[18],4.47 µM (active)
same,IC50,[19],9.03 µM (active)
Cc1ccc(N/C(S)=C(\C#N)c2nc3ccccc3s2)cc1,IC50,[20],1.49 µM (active)
CCN1C(NCCc2cccnc2)=N[C@@H](c2ccccc2)[C@H](C(=O)OC)[C@H]1C,EC50,[21],14.6 µM (active)
same,IC50,[22],6.37 µM (active)
same,IC50,[23],4.22 µM (active)
c1ccc(N2CCN(c3ncnc4c3oc3ccccc34)CC2)cc1,IC50,[24],17.7 µM (inactive)
same,IC50,[25],12.4 µM (inactive)
same,IC50,[26],4.71 µM (active)
same,IC50,[27],> 88.8 µM (inactive)
same,IC50,[28],> 50 µM (inactive)
same,IC50,[29],> 66.3 µM (inactive)
CC(=O)c1c(C)n(-c2ccc(C)cc2C)c2ccc(O)cc12,IC50,[30],> 79 µM (inactive)
CC(C)(C)NCC(O)c1cc(Cl)c(N)c(Cl)c1 (configuration not stated) [CLENBUTEROL HYDROCHLORIDE],IC50,[18],0.000897 µM (active)
same,IC50,[19],0.0288 µM (active)
CCC(C)(C)n1nnnc1C(c1cccnc1)N1CCN(c2cccc(C(F)(F)F)c2)CC1 (configuration not stated),EC50,[21],16 µM (active)
same,EC50,[31],0.101 µM (active)
same,EC50,[32],> 60 µM (not active)
Cn1c(-c2ccc3c(c2)OCO3)cnc1N,AC50,[33],83.7 µM (active)
C=CCSC1=C(C#N)C(c2ccccc2Cl)C(C(=O)c2cccs2)C(O)(C(F)(F)F)N1 (configuration not stated),IC50,[24],25 µM (inactive)
same,IC50,[25],1.62 µM (active)
same,IC50,[26],0.405 µM (active)
same,IC50,[27],10.3 µM (inactive)
same,IC50,[28],15.2 µM (inactive)
same,IC50,[29],> 66.2 µM (inactive)
